# Measurements reported in US8236820B2, “Anti-inflammatory compounds and uses thereof” (priority 2007, dated 2012).
# Tests used:
# [1] = test system: MCF-7; assay: Cell viability (MTT) assay, 24-h IC50, MCF-7; format: cell-based, human; conditions: Homo sapiens, MCF7, 24 h, read-out: 24-h IC50
# [2] = test system: SW480; assay: Cell viability (MTT) assay, 24-h IC50, SW480; format: cell-based, human; conditions: Homo sapiens, SW480, 24 h, read-out: 24-h IC50
# [3] = test system: MIA-PaCa-2; assay: Cell viability (MTT) assay, 24-h IC50, MIA-PaCa-2; format: cell-based, human; conditions: Homo sapiens, MIA PaCa-2, 24 h, read-out: 24-h IC50
# [4] = test system: SW480 and HT-29 human colon cancer cells; assay: Cell kinetics of colon cancer cells treated with phospho-sulindac I; format: cell-based
# Procedure: Cell proliferation assay: To determine cell proliferation, we measured the incorporation of 5-bromo-2′-deoxyuridine (BrdU) into newly synthesized cellular DNA, following the manufacture's instructions (BD Biosciences, San Jose, Calif.).
# Annexin V and propidium iodide (PI) staining: Cells were seeded at a density of 1×10^5 cells/well and treated for 24 h with various concentrations of each compound or equivalent volumes of DMSO. Briefly, after incubation with the test compounds, cells were trypsinized and stained with Annexin V-FITC (Invitrogen) and PI (0.5 μg/ml). Following incubation at room temperature for 15 min in the dark, annexin V-FITC and PI fluorescence intensities were analyzed by FACScaliber (BD Bioscience). Annexin V (+)/PI (−) cells are in early apoptosis, annexin V (+)/PI (+) cells are in late apoptosis (secondary necrosis), and annexin V (−)/ PI (+) cells are necrotic cells.
# Determination of cell cycle phase distribution (PI incorporation assay): Cells were seeded in culture plates and treated for 24 h with various concentrations of each compound or equivalent volumes of DMSO. After treatment, cells were trypsinized and fixed in 70% ethanol for 1 h on ice, stained with PI (50 μg/ml) and RNase A (4 U/ml) for 30 min and subjected to flow cytometric analysis for the determination of their distribution in the cell cycle phases.
# [5] = test system: APC^Min/+ mice; assay: APC Min/+ mice study of intestinal tumors; format: in vivo; conditions: 50 mg/kg/day gavage, 4 weeks
# From the text: APC^Min/+ mice study: Min mice have a truncating mutation in the Apc gene that predisposes them to the development of gastrointestinal tumors in the small intestine and colon (Lipkin M, Yang K, Edelmann W, et al. Preclinical mouse models for cancer chemoprevention studies. Ann N Y Acad Sci 1999; 889:14-9.). In many important ways, this model system represents a useful (and extensively utilized) experimental system that recapitulates the relevant steps of colon carcinogenesis.
# Eleven week-old male C57BL/6J APC^Min/+ mice divided into […] groups of 10 mice/group were treated for 4 weeks via gavage administration as follows: group 1 was treated with vehicle (corn oil); and group 2 was treated with phospho-sulindac I 50 mg/kg/day.
# [6] = test system: SW480 colon cancer cells; assay: Nude mice xenograft study; format: in vivo; conditions: 50 mg/kg/day gavage, 14 days
# Procedure: Nude mice xenograft study: Female nude mice CByJ.Cg-Foxn1 (5-6 weeks-old) were inoculated subcutaneously in their lower right flank with 1.5×10^6 SW480 colon cancer cells in a volume of 100 μl (containing 50% matrigel in PBS). Seven days later, animals were randomized into two groups (8 mice/group): group 1 received vehicle (1% (w/v) carboxy methylcellulose); group 2 received 50 mg/kg/day phospho-sulindac I. All drugs were administered in a solution of 1% (w/v) carboxy methylcellulose by gavage once daily (phospho-sulindac I and sulindac concentrations are equimolar). Tumors were measured twice a week with a digital microcaliper, and tumor volume (TV) was calculated using the formula: TV=[L×W×(L+W/2)×0.56], where L=length and W=width of tumor. After 14 days of treatment, animals were sacrificed, and tumors were removed and weighed.
# [7] = test system: SW480; assay: DFMO / phospho-sulindac I synergy, cell growth at 48 h, SW480; format: cell-based, human; conditions: SW480, 48 h; DFMO 5 mM, phospho-sulindac I 40 μM
# Procedure: A—Left panel: Cell viability was determined in HT-29 (full bars) and SW-480 (empty bars) cells after 48 h of incubation with 5 mM DFMO, 40 μM phospho-sulindac (P-S) or simultaneous combination of DFMO and P-S. Data are expressed as percentage of control cells (cells incubated only with DMSO). […] Right panel: In this isobologram the additivity line connects the IC50 value of each compound used alone. A and B represent two different dose pairs of each compound (their respective concentrations are shown in parentheses). The location of both A and B below the additivity line signifies synergy. […] DNA content was determined from propidium iodide (PI) fluorescence. C—Apoptosis and necrosis were determined by combined staining with annexin V and PI and determining fluorescence intensity. The percentages of apoptotic cells were determined using the dual staining with annexin V and propidium iodide and are indicated in each quadrant: left bottom quadrant, viable cells (annexin V-negative/PI-negative); right bottom quadrant, early apoptotic cells (annexin V-positive/PI-negative); right upper quadrant, late apoptotic cells (annexin V-positive/PI-positive); left upper quadrant, necrotic cells (annexin V-negative, PI-positive). […]
# [8] = test system: spermidine/spermine N^1-acetyltransferase (SSAT); assay: SSAT enzymatic activity in HT-29 cells; format: cell-based, human; conditions: HT-29, 24 h; phospho-sulindac I 85 μM; P<0.05 versus control
# Procedure: SW480 cells were incubated without or with phospho-sulindac I (P-S) for up to 24 h and SSAT activity was determined at each time point by determining the amount of labelled N1-acetylspermidine synthesized from [^14C]acetyl-CoA and unlabeled spermidine.
# The effect of phospho-sulindac I on polyamines is mediated, at least in part, by activation of SSAT by phospho-sulindac I. It is known that conventional sulindac induces SSAT activity (Babbar et al., Cyclooxygenase-independent induction of apoptosis by sulindac sulfone is mediated by polyamines in colon cancer. J Biol Chem 2003; 278(48):47762-75.). Incubation of HT-29 and SW480 cells with 85 μM phospho-sulindac I for 24 h leads to a 3- and 4.4-fold increase of SSAT activity (P<0.05 versus control), respectively. On the other hand, incubation with sulindac led to a 1.5 and 2.5-fold increase of SSAT activity (P<0.05 versus control) in HT-29 and SW480 cells, respectively.
# [9] = 24 h at its 24-h IC50, vs untreated controls
structure (smiles),measurement,setting,value
CCOP(=O)(OCC)OCCCCOC(=O)CC1=C(C)/C(=C/c2ccc([S+](C)[O-])cc2)c2ccc(F)cc21 (centres unmarked) [Phospho-sulindac I],IC50,[1],62 µM
same,IC50,[2],98 µM
same,IC50,[3],88 µM
same,effect on G1 to S cell cycle phase transition,[4]; 24 h at its 24-h IC50,blocked the transition form the G1 to the S cell cycle phase
same,induced apoptosis (early and late subtypes combined),[4]; [9],201%
same,induced necrosis,[4]; [9],1350%
same,inhibited cell proliferation,[4]; [9],72%
same,necrosis in treated cells,"[4]; 24 h at its 24-h IC50, controls 0.2%",2.9%
same,apoptosis (early and late combined) in treated cells,"[4]; 24 h at its 24-h IC50, controls 6.6%",20%
same,cell proliferation in treated cells,"[4]; 24 h at its 24-h IC50, controls 43%",12%
same,signs of toxicity in Min mice,[5],without any overt signs of toxicity
same,decreased the number of tumors in the small intestine,"[5]; vs vehicle, p<0.002",57.2%
same,reduction of tumors in the colon,"[5]; vs vehicle, p<0.02",61.8%
same,number of colon tumors,[5]; vehicle 1.6±0.8,0.6±0.5
same,number of intestinal tumors,[5]; vehicle 33.6±8.7,19.4±12.0
same,tolerability in xenograft study,[6],no weight loss or other signs of toxicity were observed
same,mean tumor weight,"[6]; mean±SEM, vehicle 0.246±0.041",0.097±0.018
same,reduction in tumor weight,"[6]; vs vehicle, p<0.05",60%
same,reduction in cell number,[7],45%
same,increase of SSAT activity,[8],3 fold
